# Tests used:
# [1] = molecular target: T1, bisdioxopiperazine resistant Y165S mutant human topoisomerase II α (Homo sapiens, UniProt P11388, Y165S); assay type: biochemical; settings: FIG. 2-B
# T1 construct: made in house; host or cells: yeast (over-expressing yeast cells)
# Method: Topoisomerase II catalytic activity (DNA strand passage activity) was measured by using a filter-based kDNA decatenation assay as described in Jensen et al., 2002. Briefly, 200 ng ^3H labelled kDNA isolated from C. fasciculata was incubated with increasing concentrations of drug in 20 μL reaction buffer containing 10 mM TRIS-HCl pH 7.7, 50 mM NaCl, 50 mM KCl, 5 mM MgCl2, 1 mM EDTA, 15 μg/mL BSA and 1 mM ATP using two units of purified wild-type or Y165S mutant topoisomerase II α for 20 minutes at 37° C. (where one unit of activity is defined as the amount of enzyme required for complete decatenation in the absence of drug). After addition of 5× stop buffer (5% Sarkosyl, 0.0025% bromophenol blue, and 50% glycerol), unprocessed kDNA network and decatenated DNA mini-circles were separated by filtering, and the amount of unprocessed kDNA in each reaction was determined by scintillation counting.
# Inhibition of human topoisomerase II α DNA strand passage activity was assessed by decatenation of tritium-labelled Crithidia fasiculata kDNA using a filter-based assay to separate unprocessed kDNA network from decatenated mini-circles.
# topoisomerase II α [2] = molecular target: T2, topoisomerase II α (Homo sapiens, UniProt P11388); test: Topoisomerase II ATPase assay (coupled, NADH oxidation); assay type: biochemical; design: made in house; host or cells: yeast (over-expressing yeast cells)
# Method: The reaction was monitored spectrophotometrically at 340 nm using a Bio-Tek EL808 Ultra Micro plate Reader connected to a computer with KC4 Software installed (Bio-Tek Instruments, U.S.). The change in absorbance was related to ADP production using A340^1M=6220 cm^−1. […] The rate of ATP hydrolysis, V, was determined from the linear part of the curve.
# The steady-state rate of ATP hydrolysis was determined using a coupled ATPase assay as described herein. […] Error bars represent SEM of two independent experiments each performed in duplicate.
# The steady-state rate of ATP hydrolysis was determined as described in for FIG. 3 and as described herein. In this analysis, the rate of ATP hydrolysis in the absence of drug was set to one in all experiments. Error bars represent SEM of 2 or 3 independent experiments each preformed in duplicate.
# topoisomerase II α [3] = molecular target: T2, topoisomerase II α; test: Band depletion assay (extractable topoisomerase II α, western blot); assay type: cell-based; design: OC—NYH cells were exposed to increasing concentrations of NSC 35866 for one hour and total proteins were extracted at 0.3 M NaCl; endogenous in cells; host or cells: human small cell lung cancer OC-NYH cells; settings: 200 μM, OC—NYH cells, one hour
# Method: Band depletion assay was performed essentially as described in Sehested et al., 1998. The amount of extractable topoisomerase II α was detected by the ECL detection method (Amersham, Buckinghamshire, United Kingdom). OC—NYH cells were exposed to increasing concentrations of NSC 35866 for one hour and total proteins were extracted at 0.3 M NaCl. For detection of topoisomerase II α, a polyclonal primary antibody (Bio Trend, Cologne, Germany) was used. Horseradish peroxidase linked anti-rabbit antibody (Amersham, Buckinghamshire, United Kingdom) was used as secondary antibody.
# FIG. 10 describes the results of studies of the ability of NSC 35866 to trap human topoisomerase II α as a non-extractable complex on DNA in a dose dependent manner. The ability of NSC 35866 to stabilise topoisomerase II α as a non-extractable complex on DNA in human SCLC OC—NYH cells was assessed using the band depletion assay as described herein. The amounts of topoisomerase II α was visualised by western blotting using a topoisomerase II α specific primary antibody: Lane 1, no drug; Lane 2, 200 μM ICRF-187; Lane 3, 200 μM NSC 35866; Lane 4, 500 μM NSC 35866; Lane 5, 1000 μM NSC 35866. Band depletion of the topoisomerase II α isoform caused by NSC 35866 was detected in two independent experiments.
# topoisomerase II α [4] = molecular target: T2, topoisomerase II α; test: Topoisomerase II retention on DNA/streptavidin beads (salt-stable complex); assay type: biochemical; design: made in house; host or cells: yeast (over-expressing yeast cells)
# Method: An assay capable of measuring non-covalent complexes of topoisomerase II on closed circular DNA was performed as described in Morris et al., 2000, with modifications. When performing six reactions, 60 μL M280 streptavidin coated bead (Dynal A/S, Oslo, Norway) slurry corresponding to 600 μg beads was transferred to a 1.5 mL tube that was then placed in a Dynal MPC-E (magnetic particle concentrator) rack (Dynal A/S, Oslo, Norway) for 1 to 2 minutes until the beads had settled on the tube wall. The beads were then washed twice in the DNA binding solution supplied with the kilobase binding kit (Dynal A/S, Oslo, Norway) by repeating this step. Finally, the beads were re-suspended in 250 μL DNA binding solution. A preparation of biotin labelled plasmid DNA containing a 5-kb super coiled circular DNA molecule carrying 8 successive PNA (Peptide Nucleic Acid) linked biotin labels at one known position (pGeneGrip biotin blank vector, Gene Therapy Systems Inc., San Diego, Calif., USA) was made by mixing 220 μL distilled water and 30 μL biotinylated DNA. After mixing the beads and the DNA preparation, the sample was left overnight at room temperature under gentle agitation to assure optimal formation of the DynaBeads DNA complex. Next, the complex was washed twice in 480 μL wash buffer (10 mM TRIS-HCL, pH 7.5, 2 M NaCl, 1 mM EDTA), once in distilled water, and once in topoisomerase reaction buffer (10 mM TRIS-HCl, pH 7.9, 50 mM NaCl, 50 mM KCl, 5 mM MgCl2, 1 mM EDTA, […] BSA). Then, the beads were re-suspended in 600 μL topoisomerase II buffer and divided into 6 tubes. 100 μL reactions containing plasmid DNA coated DynaBeads, topoisomerase II buffer, 2 μg purified human topoisomerase […] and drugs were incubated for 30 minutes at 37° C. When included, ATP was present at 1 mM. […]
# FIG. 7 describes the results of studies of the ability of NSC 35866 to stabilise a salt-stable complex of human topoisomerase II α on covalently closed circular DNA. Retention of salt-stable (to 2 M KCl) complexes of human topoisomerase II α on circular DNA attached to magnetic beads via biotin-streptavidin linkage was determined by eluting retained protein by adding running buffer containing 4% SDS followed by heating to 100° C. for 10 minutes. The amount of human topoisomerase II α protein retained was then determined by running the samples on 7% SDS-PAGE gels followed by straining with GelCode Blue Strain Reagent (Pierce, Rockford, Ill., USA): Lane 1, no drug; Lane 2, 200 μM ICRF-187; Lane 3, 30 μM NSC 35866; Lane 4, 100 μM NSC 35866; Lane 5, 300 μM NSC 35866; Lane 6, 1000 μM NSC 35866; Lane K, 2 μg human topoisomerase II α. […]
# T2 sequence (P11388 whole entry): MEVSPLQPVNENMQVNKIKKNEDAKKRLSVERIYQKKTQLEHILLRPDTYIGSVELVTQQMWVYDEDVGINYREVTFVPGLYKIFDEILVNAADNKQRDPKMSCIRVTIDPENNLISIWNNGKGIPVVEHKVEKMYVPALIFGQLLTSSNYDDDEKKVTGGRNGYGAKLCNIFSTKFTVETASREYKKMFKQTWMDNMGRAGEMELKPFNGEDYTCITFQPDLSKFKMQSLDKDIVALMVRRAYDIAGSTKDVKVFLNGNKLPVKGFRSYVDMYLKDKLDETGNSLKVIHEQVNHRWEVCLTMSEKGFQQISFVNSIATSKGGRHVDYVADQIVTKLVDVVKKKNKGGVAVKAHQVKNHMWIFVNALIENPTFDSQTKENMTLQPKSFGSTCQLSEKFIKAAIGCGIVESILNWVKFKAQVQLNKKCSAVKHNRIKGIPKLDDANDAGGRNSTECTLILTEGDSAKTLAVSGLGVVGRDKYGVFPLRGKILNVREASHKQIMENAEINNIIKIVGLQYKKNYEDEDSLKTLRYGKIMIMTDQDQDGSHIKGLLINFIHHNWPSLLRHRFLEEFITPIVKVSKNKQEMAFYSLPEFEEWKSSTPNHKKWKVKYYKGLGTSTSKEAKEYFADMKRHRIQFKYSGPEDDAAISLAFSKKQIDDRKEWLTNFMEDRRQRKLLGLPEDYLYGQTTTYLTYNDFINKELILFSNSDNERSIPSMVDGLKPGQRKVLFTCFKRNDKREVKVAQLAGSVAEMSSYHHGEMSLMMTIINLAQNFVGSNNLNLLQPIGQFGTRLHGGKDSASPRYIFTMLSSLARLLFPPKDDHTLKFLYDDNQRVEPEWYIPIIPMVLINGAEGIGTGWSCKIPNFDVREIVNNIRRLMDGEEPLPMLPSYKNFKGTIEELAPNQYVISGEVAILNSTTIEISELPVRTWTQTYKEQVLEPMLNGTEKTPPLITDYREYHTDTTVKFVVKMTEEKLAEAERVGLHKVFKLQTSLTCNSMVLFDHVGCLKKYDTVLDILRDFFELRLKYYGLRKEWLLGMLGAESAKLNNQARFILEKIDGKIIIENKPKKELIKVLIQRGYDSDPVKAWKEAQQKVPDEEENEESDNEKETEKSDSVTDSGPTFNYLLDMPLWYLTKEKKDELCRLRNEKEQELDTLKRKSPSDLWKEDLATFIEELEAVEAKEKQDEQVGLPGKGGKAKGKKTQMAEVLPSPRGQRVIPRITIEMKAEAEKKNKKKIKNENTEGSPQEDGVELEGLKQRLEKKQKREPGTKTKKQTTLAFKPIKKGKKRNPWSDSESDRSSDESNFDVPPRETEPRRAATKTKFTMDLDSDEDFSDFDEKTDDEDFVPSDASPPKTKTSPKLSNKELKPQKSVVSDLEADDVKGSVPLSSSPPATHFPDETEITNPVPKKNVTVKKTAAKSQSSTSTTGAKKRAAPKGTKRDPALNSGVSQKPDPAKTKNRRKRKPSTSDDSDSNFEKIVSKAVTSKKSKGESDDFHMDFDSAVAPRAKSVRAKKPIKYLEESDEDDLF
# T1 sequence (P11388 whole entry Y165S): as the sequence (P11388 whole entry) above, with Y165S counted along it
smiles,measurement,setting,value
"C[C@@H](CN1CC(=O)NC(=O)C1)N1CC(=O)NC(=O)C1 [ICRF-187, (+)-1,2-bis(3,5-dioxopiperazinyl-1-yl)propane, reference compound]","inhibition of catalytic activity of the Y165S protein, in words",[1],incapable of inhibiting the catalytic activity of the Y165S protein
same,ATPase activity relative to that seen in the absence of drug,"topoisomerase II α [2]; 100 μM, in the absence of DNA",75%
same,IC50,"topoisomerase II α [2]; in the presence of DNA (DNA-stimulated), read-out: IC50, inhibition of ATPase activity",1000 nM
same,"effect on amount of extractable topoisomerase II α, in words",topoisomerase II α [3],clearly reduced
same,"retention of topoisomerase II on DNA beads after 2 M KCl wash, in words","topoisomerase II α [4]; 200 μM, with ATP",strongly induced the retention of topoisomerase II to the beads
same,"retention of topoisomerase II on DNA beads, in words",topoisomerase II α [4]; in the absence of ATP,strongly depended on ATP

# Source: US20090209535A1, “6-ETHER/THIOETHER-PURINES AS TOPOISOMERASE II CATALYTIC INHIBITORS AND THEIR USE IN THERAPY” (TOPOTARGET A/S, priority 2005, published 2009)
